How the values were obtained:
CYP2C19 = target: T1, CYP2C19 (Homo sapiens, UniProt P33261); experiment: Cytochrome P450 inhibition assay in HLMs; format: in vitro ADME; details: pooled human liver microsomes, probe S-mephenytoin (4-hydroxylation), up to 50 μM
T1 construct: tissue Xenotech H0630; host or cells: pooled human liver microsomes
Procedure: (§1) All experiments were performed in triplicate. Phenacetin O-deethylase, coumarin hydroxylase, bupropion hydroxylase, amodiaquine N-deethylase, tolbutamide 4-hydroxylase, S-mephenytoin hydroxylase, dextromethorphan O-demethylase, chlorozoxazone 6-hydroxylase, and midazolam 1’-hydroxylase activities were determined as probe activities for CYP1A2, CYP2A6, CYP2B6, CYP2C8, CYP2C9, CYP2C19, CYP2D6, CYP2E1, and CYP3A, respectively, using cocktail incubation and tandem mass spectrometry, as described previously^2,3.

CYP2C8 = target: T2, CYP2C8 (Homo sapiens, UniProt P10632); experiment: Cytochrome P450 inhibition assay in HLMs; format: in vitro ADME; details: pooled human liver microsomes, probe amodiaquine (N-deethylation), up to 50 μM
T2 construct: tissue Xenotech H0630; host or cells: pooled human liver microsomes
T2 sequence (P10632 1-490): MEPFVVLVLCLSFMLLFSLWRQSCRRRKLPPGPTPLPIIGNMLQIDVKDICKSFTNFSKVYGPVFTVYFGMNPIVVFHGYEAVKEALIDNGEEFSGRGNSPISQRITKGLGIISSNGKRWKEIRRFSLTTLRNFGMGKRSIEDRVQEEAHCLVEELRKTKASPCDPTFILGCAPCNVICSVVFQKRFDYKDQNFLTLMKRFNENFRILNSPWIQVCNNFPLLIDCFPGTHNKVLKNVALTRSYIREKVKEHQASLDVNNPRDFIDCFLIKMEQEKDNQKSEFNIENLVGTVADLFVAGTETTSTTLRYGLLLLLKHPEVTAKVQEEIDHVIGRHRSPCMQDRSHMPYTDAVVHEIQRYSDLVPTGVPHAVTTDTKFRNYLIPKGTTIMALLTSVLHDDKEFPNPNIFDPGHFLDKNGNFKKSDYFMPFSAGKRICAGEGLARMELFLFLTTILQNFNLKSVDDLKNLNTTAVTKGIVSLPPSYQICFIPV
Procedure: as §1

CYP2C9 = target: T3, CYP2C9 (Homo sapiens, UniProt P11712); experiment: Cytochrome P450 inhibition assay in HLMs; format: in vitro ADME; details: Diclofenac 4-hydroxylation, pooled HLMs, up to 50 μM
T3 construct: tissue Xenotech H0630; host or cells: pooled human liver microsomes
T3 sequence (P11712 whole entry): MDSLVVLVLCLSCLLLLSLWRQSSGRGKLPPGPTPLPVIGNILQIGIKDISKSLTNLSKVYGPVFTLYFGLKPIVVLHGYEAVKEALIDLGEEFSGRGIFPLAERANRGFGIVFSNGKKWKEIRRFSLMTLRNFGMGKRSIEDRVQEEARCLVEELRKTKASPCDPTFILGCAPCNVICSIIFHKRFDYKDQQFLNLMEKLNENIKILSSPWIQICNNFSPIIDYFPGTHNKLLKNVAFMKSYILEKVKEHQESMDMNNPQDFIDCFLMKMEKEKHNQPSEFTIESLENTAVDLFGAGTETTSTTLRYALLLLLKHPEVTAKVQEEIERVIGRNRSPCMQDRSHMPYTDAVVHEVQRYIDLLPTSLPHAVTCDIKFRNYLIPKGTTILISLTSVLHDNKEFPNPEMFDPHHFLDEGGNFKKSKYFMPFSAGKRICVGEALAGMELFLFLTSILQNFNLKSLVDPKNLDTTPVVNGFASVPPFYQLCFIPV
Procedure: as §1, with “Cytochrome P450 Inhibition Assay: […] All” for “All”

CYP2D6 = target: T4, CYP2D6 (Homo sapiens, UniProt P10635); experiment: Cytochrome P450 inhibition assay in HLMs; format: in vitro ADME; details: Dextromethorphan O-demethylation, pooled HLMs, up to 50 μM
T4 construct: tissue Xenotech H0630; host or cells: pooled human liver microsomes
T4 sequence (P10635 whole entry): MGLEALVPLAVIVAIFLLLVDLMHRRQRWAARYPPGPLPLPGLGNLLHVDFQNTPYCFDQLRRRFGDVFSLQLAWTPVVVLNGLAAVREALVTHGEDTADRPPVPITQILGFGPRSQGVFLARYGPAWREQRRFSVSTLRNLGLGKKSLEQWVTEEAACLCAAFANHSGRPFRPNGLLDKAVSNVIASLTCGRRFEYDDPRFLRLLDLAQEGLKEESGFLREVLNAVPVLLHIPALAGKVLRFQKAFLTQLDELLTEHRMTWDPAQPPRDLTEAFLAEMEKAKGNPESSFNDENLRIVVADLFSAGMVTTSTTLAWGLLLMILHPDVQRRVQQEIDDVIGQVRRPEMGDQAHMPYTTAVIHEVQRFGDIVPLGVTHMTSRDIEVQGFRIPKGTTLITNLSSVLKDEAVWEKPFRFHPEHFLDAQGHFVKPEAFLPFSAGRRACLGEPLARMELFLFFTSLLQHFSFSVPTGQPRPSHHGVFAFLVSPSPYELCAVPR
Procedure: as §1, with “Cytochrome P450 Inhibition Assay: […] All” for “All”

CYP2E1 = target: T5, CYP2E1 (Homo sapiens, UniProt P05181); experiment: Cytochrome P450 inhibition assay in HLMs; format: in vitro ADME; details: Chlorozoxazone 6-hydroxylation, pooled HLMs, up to 50 μM
T5 construct: tissue Xenotech H0630; host or cells: pooled human liver microsomes
T5 sequence (P05181 whole entry): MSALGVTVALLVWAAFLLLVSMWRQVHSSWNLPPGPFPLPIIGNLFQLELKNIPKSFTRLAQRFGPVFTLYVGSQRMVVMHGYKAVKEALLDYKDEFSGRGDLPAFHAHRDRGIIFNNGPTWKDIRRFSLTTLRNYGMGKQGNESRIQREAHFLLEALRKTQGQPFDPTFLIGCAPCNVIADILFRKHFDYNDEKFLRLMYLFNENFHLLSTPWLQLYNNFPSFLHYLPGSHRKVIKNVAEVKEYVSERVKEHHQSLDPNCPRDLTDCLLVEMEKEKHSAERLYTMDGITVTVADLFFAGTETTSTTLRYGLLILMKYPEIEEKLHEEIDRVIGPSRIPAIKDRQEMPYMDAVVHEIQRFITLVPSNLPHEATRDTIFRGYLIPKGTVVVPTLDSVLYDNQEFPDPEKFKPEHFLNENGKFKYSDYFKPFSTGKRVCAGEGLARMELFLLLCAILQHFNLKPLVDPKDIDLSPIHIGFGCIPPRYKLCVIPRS
Procedure: as §1, with “Cytochrome P450 Inhibition Assay: […] All” for “All”

[1] = test system: BLM-induced pulmonary fibrosis; experiment: BLM-induced pulmonary fibrosis, Ashcroft scoring of lung sections; format: in vivo, ICR mice; details: BLM 30 mg/kg intratracheal; ACF-2 10 mg/kg i.p. every 2 days or NIDB 60 mg/kg/day in drinking water, 2 weeks; BLM-only 6.2
Procedure: Male ICR mice received BLM (30 mg/kg, intratracheal). […] Fixed left lung lobes were paraffin-embedded, sectioned (4 μm), and stained with H&E or MT. A blinded pathologist graded pulmonary fibrosis on the 1-8 Ashcroft scale; representative images illustrate typical lesions. Colon samples were processed by the swiss-roll method, stained with H&E, and scored for inflammation and erosion, which were combined into a composite histological score. All animal studies were approved by the Institutional Animal Care and Use Committee of Jeju National University (Approval ID: 2024-0058) and conducted in compliance with institutional guidelines. Male ICR mice (6 weeks old, average body weight 27 g) were purchased from […] (South Korea) and housed under controlled temperature (22 ± 2 °C) and humidity (0.0 ± 15.0 %) on a 12 hr light-dark cycle with free access to food and water. […] Lung tissue: Left lung lobes were fixed in 4% paraformaldehyde for 24 h, dehydrated, and embedded in paraffin. Sections of 4 μm thickness were prepared, deparaffinized with xylene, and rehydrated in a graded ethanol series. H&E staining was performed using hematoxylin and eosin solutions, respectively. The severity of fibrosis was graded according to the Ashcroft scale (1-8), as evaluated by a pathologist blindly. Representative H&E images were chosen to illustrate the most characteristic pathology. […]

colon = experiment: Colonic histopathology in the BLM mouse study; format: in vivo, ICR mice; details: BLM mice; ACF-2 10 mg/kg i.p. every 2 days or NIDB 60 mg/kg/day
From the text: Fixed left lung lobes were paraffin-embedded, sectioned (4 μm), and stained with H&E or MT. A blinded pathologist graded pulmonary fibrosis on the 1-8 Ashcroft scale; representative images illustrate typical lesions. Colon samples were processed by the swiss-roll method, stained with H&E, and scored for inflammation and erosion, which were combined into a composite histological score. All animal studies were approved by the Institutional Animal Care and Use Committee of Jeju National University (Approval ID: 2024-0058) and conducted in compliance with institutional guidelines. Male ICR mice (6 weeks old, average body weight 27 g) were purchased from […] (South Korea) and housed under controlled temperature (22 ± 2 °C) and humidity (0.0 ± 15.0 %) on a 12 hr light-dark cycle with free access to food and water. […] Colon tissue: Colons were harvested, flushed with 1xPBS, and prepared using the swiss-roll method before embedding in paraffin. Sections of 4 μm thickness were subjected to H&E staining as described above. Colonic injury was evaluated by two independent parameters: (i) inflammation score (0-3) and (ii) erosion score (0-3). A composite histological score was then calculated as the sum of inflammation and erosion scores for each sample.

MRC-5 = experiment: Western blot of fibrosis markers in MRC-5; format: cell-based, human; details: MRC-5, TGF-β1 and ACF-2 co-treatment
Procedure: RIPA lysates (BCA-normalized) were resolved by SDS-PAGE, transferred to nitrocellulose, and probed with the antibodies listed in Appendix S2. Protocols & Materials.
Cells were lysed in RIPA buffer supplemented with a Protease Inhibitor Cocktail. Protein concentrations were determined using the SMART™ BCA Protein Assay Kit. Equal amounts of protein were separated by SDS-PAGE and transferred onto nitrocellulose membranes. Membranes were blocked with 5% skim milk in TBST and incubated overnight at 4 °C with the primary antibodies indicated below. Membranes were then washed and incubated for 1 hr at room temperature with the appropriate secondary antibodies. Protein bands were visualized using the Davinch Western Imaging system according to the manufacturer’s instructions. Band intensities were quantified using ImageJ software after background subtraction. The signal intensity of each target protein was normalized to the corresponding GAPDH band, and values were further normalized to the control group (set to 1 for each independent experiment).

T1 sequence (P33261 whole entry): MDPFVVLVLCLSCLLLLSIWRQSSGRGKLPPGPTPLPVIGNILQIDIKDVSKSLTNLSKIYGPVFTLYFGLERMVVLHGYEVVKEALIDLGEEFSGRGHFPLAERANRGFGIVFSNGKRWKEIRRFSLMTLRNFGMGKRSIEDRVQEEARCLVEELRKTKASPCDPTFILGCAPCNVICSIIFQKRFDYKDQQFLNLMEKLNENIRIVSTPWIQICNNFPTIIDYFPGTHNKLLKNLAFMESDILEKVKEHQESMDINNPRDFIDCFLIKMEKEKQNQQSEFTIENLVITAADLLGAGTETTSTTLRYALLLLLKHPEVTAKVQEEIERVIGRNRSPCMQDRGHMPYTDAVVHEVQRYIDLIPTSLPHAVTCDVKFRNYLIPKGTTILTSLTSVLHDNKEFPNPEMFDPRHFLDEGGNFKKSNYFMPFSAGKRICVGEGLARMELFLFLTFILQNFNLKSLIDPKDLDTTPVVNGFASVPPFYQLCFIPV

In the case of `COc1ccc(-c2c(-c3ccc(O)c(OC)c3)oc3cc(OC)c(OC)cc3c2=O)cc1` [ACF-2], the IC50 (CYP2C19) is reported as 8.05 µM, the IC50 (CYP2C8) is reported as 6.24 µM and the IC50 (CYP2C9) is reported as 18.1 ± 4.61 µM. The IC50 (CYP2D6) was 40.2 ± 12.4 µM, the IC50 (CYP2E1) was > 50 µM and the “Average Ashcroft score” value [1] was 3.3. For the same compound, the “composite histological score of colon (inflammation + erosion)” value (colon) was “did not induce colonic inflammation or erosion” and the “Fibronectin, COL4A6, α-SMA (Western blot)” value (MRC-5) was “same dose-dependent antifibrotic response”.
